Holding throughout (assay type): cell-based
In assay [1] the test system is Streptomyces spheroides NRRL 15600. The experiment in a line: antibiotic sensitivity of the producing culture. The source says: In classifying the microorganism as a new strain of S. spheroides, the methods recommended by the International Streptomyces Project (ISP) for the characterization of Streptomyces species [E. B. Shirling and D. Gottlieb, "Methods of Characterization of Streptomyces species," Int. J. Syst. Bacteriol. 16(3), 313-340 (1966)] were followed along with certain supplementary tests.

Assay [2] deals with Escherichia coli. Briefly: antibiotic activity of column fractions. On the procedure:
(§1) Whole broth (100 L), prepared in a manner similar to that of Example 1, Section B, was filtered using a filter aid (Hyflo Supercel, Johns-ManvilleCorp.). The filtered broth (86 L) is adjusted to pH 2 with 5N hydrochloric acid and then is extracted twice with ethyl acetate (1/2 volumes). The ethyl acetate extracts are concentrated under vacuum to give an oily residue (49 g). This residue is dissolved in methanol and placed on a 10-L Diaion HP-20 column (Mitsubishi Industries). The column is washed with water (500 ml) and eluted with acetonitrile:water (30 L of 3:7 and 50 L of 3:2) and acetonitrile (20 L). Elution is carried out at a rate of 100 ml/min., collecting 4-liter fractions. Fractions are tested for antibiotic activity against Micrococcus luteus, Escherichia coli, and Neurospora crassa.

Assay [3] relates to Streptococcus sp. group D 9960. The experiment in a line: standard agar-dilution MIC assay. Particulars: Streptococcus. From the text: (§2) Table V summarizes the minimal inhibitory concentrations (MIC) at which factor S-1 inhibits certain organisms as determined by standard agar-dilution assays. In Table V, the activity of factor S-1 is compared with that of rifampin.
Assay [4] deals with Escherichia coli EC14. Briefly: standard agar-dilution MIC assay.
From the text: as §2

Assay [5] has as its system Proteus morganii PR15. Briefly: standard agar-dilution MIC assay. The conditions noted are these: Morganella morganii, PR15.
From the text: as §2

The subject of assay [6] is Pseudomonas aeruginosa Ps18. The experiment in a line: standard agar-dilution MIC assay.
From the text: as §2

In assay [7] the test system is Staphylococcus epidermidis 222. The experiment in a line: standard agar-dilution MIC assay. Particulars: Staphylococcus epidermidis, 222.
From the text: as §2

For assay [8], the system named is Salmonella typhi X514. The experiment in a line: standard agar-dilution MIC assay. Particulars: Salmonella enterica.
From the text: as §2

Assay [9] deals with Klebsiella pneumoniae X68. Briefly: standard agar-dilution MIC assay. The conditions noted are these: Klebsiella pneumoniae, X68.
From the text: as §2

For assay [10], the system named is Staphylococcus epidermidis EPI1. The experiment in a line: standard agar-dilution MIC assay.
From the text: as §2

Assay [11] concerns Escherichia coli N10. The experiment in a line: standard agar-dilution MIC assay.
From the text: as §2

The test system of assay [12] is Pseudomonas aeruginosa X528. The experiment in a line: standard agar-dilution MIC assay. The conditions noted are these: Pseudomonas aeruginosa, X528.
From the text: as §2

Assay [13] has as its system Pseudomonas aeruginosa X239. The experiment in a line: standard agar-dilution MIC assay. Particulars: Pseudomonas aeruginosa, X239.
From the text: as §2

Assay [14] deals with Enterobacter cloacae EB5. The experiment in a line: standard agar-dilution MIC assay. Particulars: Enterobacter cloacae, EB5.
From the text: as §2

The subject of assay [15] is Salmonella typhi 1335. The experiment in a line: standard agar-dilution MIC assay. The conditions noted are these: Salmonella enterica.
From the text: as §2

The subject of assay [16] is Enterobacter aerogenes EB17. Briefly: standard agar-dilution MIC assay. Particulars: Klebsiella aerogenes, EB17.
From the text: as §2

Assay [17] concerns Staphylococcus aureus S13E. The experiment in a line: standard agar-dilution MIC assay.
From the text: as §2

For assay [18], the system named is Klebsiella pneumoniae KAE. Briefly: standard agar-dilution MIC assay. The conditions noted are these: Klebsiella pneumoniae.
From the text: as §2

The subject of assay [19] is Serratia marcescens SE3. The experiment in a line: standard agar-dilution MIC assay. The conditions noted are these: Serratia marcescens, SE3.
From the text: as §2

Assay [20] relates to Staphylococcus aureus X400. The experiment in a line: standard agar-dilution MIC assay. Particulars: Staphylococcus aureus, X400.
From the text: as §2

The subject of assay [21] is Enterobacter aerogenes C32. The experiment in a line: standard agar-dilution MIC assay. Particulars: Klebsiella aerogenes, C32.
From the text: as §2

Assay [22] relates to Staphylococcus aureus NRRL B313. Briefly: standard agar-dilution MIC assay. Particulars: Staphylococcus aureus, NRRLB313.
From the text: as §2

Assay [23] concerns Streptococcus pyogenes C203. The experiment in a line: standard agar-dilution MIC assay.
From the text: as §2

The subject of assay [24] is Enterobacter cloacae 265A. Briefly: standard agar-dilution MIC assay. Particulars: Enterobacter cloacae, 265A.
From the text: as §2

The subject of assay [25] is Proteus inconstans PR33. Briefly: standard agar-dilution MIC assay. Particulars: Providencia alcalifaciens, PR33.
From the text: as §2

Assay [26] concerns Proteus rettgeri C24. The experiment in a line: standard agar-dilution MIC assay. Particulars: Providencia rettgeri, C24.
From the text: as §2

Assay [27] deals with Escherichia coli TEM. The experiment in a line: standard agar-dilution MIC assay.
From the text: as §2

Assay [28] deals with Citrobacter freundii CF17. Briefly: standard agar-dilution MIC assay. Particulars: Citrobacter freundii, CF17.
From the text: as §2

Assay [29] concerns Streptococcus pneumoniae Park 1. Briefly: standard agar-dilution MIC assay. Particulars: Streptococcus pneumoniae, PARK1.
From the text: as §2

Assay [30] concerns Staphylococcus aureus V41. Briefly: standard agar-dilution MIC assay. Particulars: Staphylococcus aureus, V41.
From the text: as §2

For assay [31], the system named is Streptococcus faecium ATCC 9790. Briefly: standard agar-dilution MIC assay. The conditions noted are these: Enterococcus faecium, ATCC9790.
From the text: as §2

Assay [32] concerns Serratia marcescens X99. The experiment in a line: standard agar-dilution MIC assay. The conditions noted are these: Serratia marcescens, X99.
From the text: as §2

The subject of assay [33] is Klebsiella pneumoniae X26. Briefly: standard agar-dilution MIC assay. Particulars: Klebsiella pneumoniae, X26.
From the text: as §2

For assay [34], the system named is Shigella sonnei N9. The experiment in a line: standard agar-dilution MIC assay.
From the text: as §2

Assay [35] has as its system Neurospora crassa. Briefly: antibiotic activity of column fractions. On the procedure:
as §1

Converted amounts (≈) assume the structure as drawn. Positions of bridges follow the written chain, without caps; N, C: chain ends. Non-standard residues stand in square brackets, D forms with d. Residues, ends and D or L forms follow the SMILES beside them. *: point of attachment. Ileψ(thiazoline)Cys = CC[C@H](C)[C@H](N)C1=N[C@H](C(=O)*)CS1; dOrn = NCCC[C@@H](N)C(=O)O

In general, MIC refers to the least concentration at which growth counts as inhibited. A low value points to a more susceptible organism.

For the molecule `CCC[C@@H]1C[C@@H](C(=O)N[C@@H]([C@H]2O[C@H](SC)[C@H](O)[C@@H](O)[C@H]2O)[C@@H](C)O)N(C)C1` [lincomycin], the “resistance / sensitivity of the culture to antibiotic” value (“resistance / sensitivity” below) in assay [1] is “resistant”.
On the same count and under the same terms, the same measure for polymyxin B: “sensitive”; for `[H]/N=C(/N)N[C@H]1[C@H](O)[C@@H](O)[C@H](O[C@@H]2O[C@@H](C)[C@](O)(C=O)[C@H]2O[C@@H]2O[C@@H](CO)[C@H](O)[C@@H](O)[C@@H]2NC)[C@@H](N/C(N)=N\[H])[C@@H]1O` [streptomycin]: “sensitive”; for `CN[C@H](CC(C)C)C(=O)N[C@H]1C(=O)N[C@@H](CC(N)=O)C(=O)N[C@H]2C(=O)N[C@H]3C(=O)N[C@H](C(=O)N[C@H](C(=O)O)c4cc(O)cc(O)c4-c4cc3ccc4O)[C@H](O)c3ccc(c(Cl)c3)Oc3cc2cc(c3O[C@@H]2O[C@H](CO)[C@@H](O)[C@H](O)[C@H]2O[C@H]2C[C@](C)(N)[C@H](O)[C@H](C)O2)Oc2ccc(cc2Cl)[C@H]1O` [vancomycin]: “sensitive”.
The same measure, in the same setting: for `CO[C@@H]1[C@@H](OC(N)=O)[C@@H](O)[C@H](Oc2ccc3c(O)c(NC(=O)c4ccc(O)c(CC=C(C)C)c4)c(=O)oc3c2C)OC1(C)C` [novobiocin] the value was “sensitive”.
Same read-out and setting: the same measure for `CCn1cc(C(=O)O)c(=O)c2ccc(C)nc21` [nalidixic acid]: “resistant”.
In the case of `CC[C@H]1OC(=O)[C@H](C)[C@@H](O[C@H]2C[C@@](C)(OC)[C@@H](O)[C@H](C)O2)[C@H](C)[C@@H](O[C@@H]2O[C@H](C)C[C@H](N(C)C)[C@H]2O)[C@](C)(O)C[C@@H](C)C(=O)[C@H](C)[C@@H](O)[C@]1(C)O` [erythromycin], in assay [1], the “resistance / sensitivity” value is “sensitive”.
With `NC[C@@H]1O[C@H](O[C@H]2[C@@H](O)[C@H](O[C@@H]3[C@@H](O)[C@H](N)C[C@H](N)[C@H]3O[C@H]3O[C@H](CN)[C@@H](O)[C@H](O)[C@H]3N)O[C@@H]2CO)[C@H](N)[C@@H](O)[C@@H]1O` [neomycin], in assay [1], the “resistance / sensitivity” value was “sensitive”.
Still for that read-out and setting: for gentamicin the value was “sensitive”; for `CC1(C)S[C@@H]2[C@H](NC(=O)Cc3ccccc3)C(=O)N2[C@H]1C(=O)O` [penicillin G], “sensitive”.
Consider `O=C(N[C@H](CO)[C@H](O)c1ccc([N+](=O)[O-])cc1)C(Cl)Cl` [Chloramphenicol], for which the “activity against E. coli” value in assay [2] is “active”. Besides, the “resistance / sensitivity” value in [1] is given as “resistant”.
Turning to `CO[C@H]1/C=C/O[C@@]2(C)Oc3c(C)c(O)c4c(O)c(c(/C=N/N5CCN(C)CC5)c(O)c4c3C2=O)NC(=O)/C(C)=C\C=C\[C@H](C)[C@H](O)[C@@H](C)[C@@H](O)[C@@H](C)[C@H](OC(C)=O)[C@@H]1C` [Rifampin, reference compound], the MIC is 2 µg/mL (≈ 2.43 µM) in [3]; 16 µg/mL (≈ 19.4 µM) in assay [4]; 32 µg/mL (≈ 38.9 µM) in assay [5]; greater than 128 µg/mL in [6]; 0.06 µg/mL (≈ 0.0729 µM) in assay [7]; 16 µg/mL (≈ 19.4 µM) in assay [8]. Besides, the MIC in [9] amounted to 16 µg/mL (≈ 19.4 µM); in assay [10] it was 0.06 µg/mL (≈ 0.0729 µM); in assay [11], 16 µg/mL (≈ 19.4 µM); in assay [12] it was 16 µg/mL (≈ 19.4 µM); in [13], 16 µg/mL (≈ 19.4 µM); in [14] it was 32 µg/mL (≈ 38.9 µM). The MIC in assay [15] was determined as 16 µg/mL (≈ 19.4 µM); in assay [16], 32 µg/mL (≈ 38.9 µM); in assay [17] it was 0.03 µg/mL (≈ 0.0365 µM); in assay [18], 32 µg/mL (≈ 38.9 µM); in assay [19], 64 µg/mL (≈ 77.8 µM); in [20], 0.06 µg/mL (≈ 0.0729 µM). For the same molecule, the MIC in [21] was found to be 32 µg/mL (≈ 38.9 µM); in [22], 0.03 µg/mL (≈ 0.0365 µM); in assay [23], 0.25 µg/mL (≈ 0.304 µM); in assay [24], 32 µg/mL (≈ 38.9 µM); in [25], 16 µg/mL (≈ 19.4 µM); in assay [26] it was 8 µg/mL (≈ 9.72 µM). In addition, the MIC stood at 128 µg/mL (≈ 156 µM) in [27]; 16 µg/mL (≈ 19.4 µM) in assay [28]; 0.125 µg/mL (≈ 0.152 µM) in [29]; 0.015 µg/mL (≈ 0.0182 µM) in assay [30]; 2 µg/mL (≈ 2.43 µM) in assay [31]; 32 µg/mL (≈ 38.9 µM) in [32]. The minimal inhibitory concentration (MIC) in assay [33] and in assay [34] was 16 µg/mL (≈ 19.4 µM) throughout. Further, the “resistance / sensitivity” value in assay [1] is “resistant”.
For the molecule `CC(=O)OCC1=C(C(=O)O)N2C(=O)[C@@H](NC(=O)Cc3cccs3)[C@H]2SC1` [cephalothin], the “resistance / sensitivity” value in assay [1] is reported as “sensitive”.
On the same count and under the same terms, the same measure for `CN(C)[C@@H]1C(O)=C(C(N)=O)C(=O)[C@@]2(O)C(O)=C3C(=O)c4c(O)cccc4[C@@](C)(O)[C@H]3C[C@@H]12` [tetracycline]: “sensitive”.
Turning to `C[C@@H]1C[C@@H]([C@H](O)CC2CC(=O)NC(=O)C2)C(=O)[C@@H](C)C1` [Cycloheximide], in assay [35], the “activity against N. crassa” value was “active”.
Take `CC[C@H](C)[C@H](N)C1=N[C@H](C(=O)N[C@@H](CC(C)C)C(=O)N[C@H](CCC(=O)O)C(=O)N[C@H](C(=O)N[C@H]2CCCCNC(=O)[C@H](CC(N)=O)NC(=O)[C@@H](CC(=O)O)NC(=O)[C@H](Cc3cnc[nH]3)NC(=O)[C@@H](Cc3ccccc3)NC(=O)[C@H]([C@@H](C)CC)NC(=O)[C@@H](CCCN)NC2=O)[C@@H](C)CC)CS1` [bacitracin] ({Ileψ(thiazoline)Cys}-L[dE]IK[dOrn]I[dF]H[dD]N; lactam 4-C): in [1], the “resistance / sensitivity” value was “sensitive”.
On the same count and under the same terms, the same measure for `Nc1ccc(S(=O)(=O)Nc2ncccn2)cc1` [sulfadiazine]: “sensitive”.

These data come from patent US4560509A, “Antibiotic A39079 factor S-1” (Eli Lilly and Company, priority 1983, dated 1985).
